Results: patent US6723699B1, “Treating disorders by application of insulin-like growth factors and analogs” (Cephalon, Inc., priority 1989, dated 2004)

Columns and labels:
[1] = test system: fetal rat cortical neuronal cultures; experiment: Fetal rat cortical neuron survival by [3H]leucine incorporation; format: cell-based
Description: The neuronal survival promoting activity of IGF-I and IGF-II was assayed on fetal rat cortical neuranal cultures. Cerebral cortices were removed from embryonic day 18 fetal rats. Cortices were minced and treated with neutral protease (Dispase, Collaborative Research) to yield dissociated cell preparations. Cells were plated at low density (5×10^3 cells/well) onto poly-L-ornithine and laminin coated ½ area 96 well plates in 50 μl of serum and insulin-free N2 medium containing 0.05% BSA and 50 μM leucine. IGF-I or II were present from time of seeding. Control cultures received no growth factor. Cultures were incubated for 24 hr at 37° C. in an atmosphere of 5% CO2, 95% air. After 24 hrs, [^3H]leucine was added in an additional 50 μl of modified N2 medium to a final concentration of 12.5 μCi/ml. Twenty-four hours after the addition of [^3H]leucine, cultures were harvested, protein precipitated on filters with 10% trichloroacetic acid, and dried filters counted in a liquid scintillation counter. The incorporation of [^3H]leucine into cells is an accurate reflection of cell survival, since incorporated [^3H]leucine counts correlated directly with the number of surviving cells as measured by microscopic counts of cells in identical cultures.

[2] = test system: 125I-[Threonine59]IGF-I binding to brain tissue sections; experiment: 125I-[Threonine59]IGF-I binding displacement on rat brain tissue sections
Description: Brains were removed intact from adult Sprague-Dawley rats, frozen on powdered dry ice, and cut into 20 μm sections (at the level of the cerebellum and brain stem) which were
thaw-mounted onto gelatin-coated glass microscope slides (Herkenham and Pert, J. Neurosci. 2:1129-1149 (1982)). Using a modification of the method of Bohannon et al. (1986), the tissue sections were covered with 250 μl of HEPES assay buffer (see Example 1) containing 0.01 nM ^125I-[Threonine^59]IGF-I alone or in combination with unlabeled IGF-I, IGF-II, or synthetic peptide fragments thereof. The sections were incubated at 4° C. for 24 hours and then rinsed in three 1-minute changes (200 ml each) of ice-cold HEPES assay buffer. The tissue sections were then wiped off the slides with filter paper, and the tissue-bound radioactivity was measured in a Beckman Model 5500B Gamma Counter.

IGF-I receptor = target: T1, IGF-I receptor (Rattus norvegicus, UniProt P24062); experiment: 125I-[Threonine59]IGF-I displacement (IGF-I receptor competition) assay, rat brain homogenate; format: binding
T1 construct: Brain tissue containing the cerebral cortex and cerebellum was dissected from adult Sprague-Dawley rats; from tissue; host or cells: adult Sprague-Dawley rat brain (cerebral cortex and cerebellum), homogenate pellet
T1 sequence (P24062 31-737 limits assumed): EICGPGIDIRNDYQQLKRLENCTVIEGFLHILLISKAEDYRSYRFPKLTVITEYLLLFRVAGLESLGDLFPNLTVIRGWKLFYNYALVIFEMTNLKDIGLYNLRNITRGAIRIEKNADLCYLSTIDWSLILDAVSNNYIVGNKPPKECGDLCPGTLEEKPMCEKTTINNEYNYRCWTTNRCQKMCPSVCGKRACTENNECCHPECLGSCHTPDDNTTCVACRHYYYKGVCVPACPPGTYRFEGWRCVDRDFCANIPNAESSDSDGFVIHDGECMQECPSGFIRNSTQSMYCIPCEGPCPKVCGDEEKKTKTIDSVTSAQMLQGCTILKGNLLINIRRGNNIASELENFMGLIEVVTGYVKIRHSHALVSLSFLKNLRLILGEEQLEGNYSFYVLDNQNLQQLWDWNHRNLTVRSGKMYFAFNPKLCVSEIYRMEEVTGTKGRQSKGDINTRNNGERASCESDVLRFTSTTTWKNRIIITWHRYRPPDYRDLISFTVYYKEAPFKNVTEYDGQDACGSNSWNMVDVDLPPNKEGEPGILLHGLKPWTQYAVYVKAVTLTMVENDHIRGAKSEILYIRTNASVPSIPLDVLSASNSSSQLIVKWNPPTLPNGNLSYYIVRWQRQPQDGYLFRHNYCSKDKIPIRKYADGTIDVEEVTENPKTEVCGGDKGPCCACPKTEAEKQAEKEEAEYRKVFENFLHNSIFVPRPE
T1 sequence (P24062 742-1370 partner limits assumed): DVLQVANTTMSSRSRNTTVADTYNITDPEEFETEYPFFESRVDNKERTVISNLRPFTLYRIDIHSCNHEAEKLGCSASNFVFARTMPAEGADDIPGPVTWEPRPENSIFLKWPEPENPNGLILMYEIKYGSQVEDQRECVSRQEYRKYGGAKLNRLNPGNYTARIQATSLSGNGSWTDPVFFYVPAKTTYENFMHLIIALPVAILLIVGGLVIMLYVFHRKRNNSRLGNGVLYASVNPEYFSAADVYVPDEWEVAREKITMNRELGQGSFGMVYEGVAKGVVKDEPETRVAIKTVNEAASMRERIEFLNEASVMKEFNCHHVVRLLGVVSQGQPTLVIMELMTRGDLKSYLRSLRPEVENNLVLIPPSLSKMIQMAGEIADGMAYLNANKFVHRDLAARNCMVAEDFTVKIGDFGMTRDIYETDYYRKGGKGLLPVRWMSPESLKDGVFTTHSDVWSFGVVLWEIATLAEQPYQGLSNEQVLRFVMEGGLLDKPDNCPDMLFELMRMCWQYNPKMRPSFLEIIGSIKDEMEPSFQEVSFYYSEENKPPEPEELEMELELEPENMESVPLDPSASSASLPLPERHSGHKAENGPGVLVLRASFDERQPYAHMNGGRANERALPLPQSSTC
Description: Brain tissue containing the cerebral cortex and cerebellum was dissected from adult Sprague-Dawley rats (Hilltop Lab Animals, Inc. Scottsdale, Pa.) and homogenized at low power for 5 minutes in a Brinkmann Polytron homogenizer (Westbury, N.Y.) containing 50 volumes of ice-cold buffer consisting of 10 mM HEPES, 0.5% BSA, 0.0125% NEM, 0.025% bacitracin, and 100 KIU/ml aprotinin, pH 7.6 (Bohannon et al., Endocrinology 119:943-945 (1986). Following homogenization, the tissue was collected after centrifugation at 7800×g for 20 minutes and resuspended in 10 volumes of assay buffer. Tissue (50 μl), 100 μl ^125I-[Threonine^59]IGF-I (20 pM), and 50 μl of buffer or peptides of varying concentration were added to 96-well plates and incubated on ice for 3 hours. After the incubation period, the tissue was collected on Whatman GF/C filters that had been pre-soaked in 0.01% polyethylenimine and washed four times with ice-cold assay buffer using a Brandel cell harvester (Gaithersburg, Md.). The filters were removed and the bound ^125I-[Threonine 59]IGF-I was measured using a Beckman Model 5500B Gamma Counter.

[3] = test system: brain ornithine decarboxylase; experiment: Induction of brain ornithine decarboxylase after intraventricular injection, adult rats; format: in vivo, rat; details: 6 hours, cerebral cortex, medial septum, hippocampus
Description: To determine whether the induction of brain ornithine decarboxylase by IGF-I was limited to developing animals, IGF-I was also injected intraventricularly into the lateral ventricles of adult Sprague-Dawley rats. After 6 hours, the brains were removed, dissected into several regions (cerebral cortex, medial septum, and hippocampus), and then assayed for ornithine decarboxylase activity as described in Example 4.

[4] = test system: cultured rat septal cells; experiment: ChAT activity in cultured rat septal cells; format: cell-based
Description: The effect of simultaneous administration of IGF-I and NGF on ChAT activity was assayed in cultured septal neurons. ChAT is the initial enzyme in the synthesis of the neurotransmitter, acetylcholine, and is a specific biochemical marker for cholinergic neurons. Assay of this enzyme may be used as an indication of the effects of IGF (and other factors) on the survival of cholinergic neurons and/or regulation of this enzyme. […] In FIG. 9 open squares represent IGF-I, diamonds indicate IGF-I+2 nM NGF, open circles indicate 2 nM NGF, and the horizontal line at 403 DPM represents uninduced cells. A similar additive effect was seen when saturating concentrations of IGF-I were combined with saturating or sub-maximal concentrations of NGF, as shown in FIG. 10. In FIG. 10 open squares indicate NGF, diamonds indicate NGF+25 nM IGF-I, open circles represent 25 nM IGF-I, and the horizontal line at 554 DPM represents uninduced cells.
Cultured rat septal cell experiments were performed generally as described in Hartikku and Hefti, J. Neuroscience, 8:2967-2985 […], Hayashi and Patel, Dev. Brain Res., 36:109-120 (1987), and as follows.
Dissociated cell cultures of the septal region of day 17 embryonic rats were prepared by standard techniques known to those skilled in the art, using enzymatic (Dispase, Collaborative Research) dissociation of tissue. Cells were seeded (plated) at 6×10^5 cells/cm^2 in poly-1-ornithine-laminin coated plastic tissue culture wells, and cultured in serum-free N2 medium (Bottenstein et al., 1978) for 5 days without feeding. Control (uninduced) cultures received no added growth factors; induced cultures received the concentrations of IGF-I and NGF indicated in FIGS. 9 and 10 at the time of plating. NGF is commercially available. ChAT was assayed by the method described in McManaman, et al. Dev. Biol. 125:311-320 (1988). AChE staining was performed according to the method of Hartikka and Hefti, J. Neuroscience 8:2967-2985 (1988).

[5] = test system: 14-day embryonic rat spinal cord neurons; experiment: Choline acetyltransferase activity in dissociated embryonic rat spinal cord neuron cultures; format: cell-based; details: 48 hr incubation
Description: The activity of IGF-I, IGF-II, or synthetic peptide derivatives of these molecules was assayed on dissociated cultures of 14-day embryonic rat spinal cord neurons. The spinal cord neurons were obtained from trypsin-dissociated spinal cords, plated, incubated with peptides, and subsequently (48 hr later) assayed for choline acetyltransferase activity as described by […] et al., Dev. Biol. 125:311-320 (1988).

## GPETLCGAELVDALQFVCGDRGFYFNKPTGYGSSS-RRAPQTGIVDECCFRSCDLRRLEMYCAPLKPAKSA [IGF-I]
[1]; IGF-I versus IGF-II
  relative potency in promoting survival of cortical neurons (in words): slightly more potent
[1]; [3H]leucine incorporation, 48 hr
  survival of cortical neurons (in words): promoted the survival of cortical neurons
[2]; peptide 4 pM, 0.01 nM 125I-[Thr59]IGF-I
  PERCENT MAX. BOUND: 91%
[2]; peptide 400 pM
  PERCENT MAX. BOUND: 30%
[2]; rat brain sections
  displacement of 125I-[Threonine59]IGF-I binding (in words): potently displaced
IGF-I receptor; peptide 10 pM, 20 pM 125I-[Thr59]IGF-I
  PERCENT MAX. BOUND: 100%
IGF-I receptor; peptide 40 nM
  PERCENT MAX. BOUND: 9.6%
IGF-I receptor; rat brain homogenate
  displacement of 125I-[Threonine59]IGF-I (in words): potent displacers
[3]
  ornithine decarboxylase activity (in words): stimulated ornithine decarboxylase activity in all brain regions assayed
[4]; concentration not printed (second part of table)
  ChAT activity % increase over control: 44%
[4]; single growth factor 1.3 nM
  ChAT activity % increase over control: 20%
[4]; single growth factor 12.5 nM
  ChAT activity % increase over control: 50%
[4]; single growth factor 25.0 nM
  ChAT activity % increase over control: 37%
[5]
  choline acetyltransferase activity (in words): substantial, dose-dependent increase in choline acetyltransferase activity
